According to US8383626B2, “Nitric oxide donors for inducing neurogenesis” (Henry Ford Health System, priority 1999, dated 2013):
Where “and” joins values, the source holds several entries; their conditions need not be identical. Equal entries are not always repeated.

Legend:
Type in all cases: in vivo, rat
[1] = system: newly formed cells (BrdU) in the subventricular zone and the dentate gyrus; test: BrdU-positive newly formed cells in rats after embolic MCA occlusion treated with DETANONO
Procedure: A pharmacological method to promote neurogenesis in brain was developed. Male Wistar rats were subjected to middle cerebral artery (MCA) occlusion by means of intraarterial placement of a clot at the origin of the right MCA. Animals were administered (iv/ip) nitric oxide donor compounds (DETANONO) after induction of stroke, at 24 and 48 hours (Group 1), or at 24 hours followed by daily injection (ip) of NO donor compound (Group 2). BrdU, a thymidine analog which identifies the formation of new cells, was injected (ip) daily over a period of 14 days from the onset of ischemia. Identification of cell type was determined by labeling immunoreactivity of specific cell proteins. Thus, neurons were identified by expression of NeuN, MAP2 and the astrocytes formed by GFAP. Measurements of neurogenesis were performed within specific regions of brain, the subventricular zone and the dentate gyrus.

[2] = system: newly formed cells (BrdU) in the subventricular zone and the dentate gyrus; test: BrdU-positive newly formed cells in non-ischemic rats after single dose of DETANONO
Procedure: Treatment of non-ischemic brain with DETANONO: Rats not subjected to any surgical procedures were treated with DETANONO. The drug was administered as a single dose (iv 0.12 mg). BrdU was injected daily for 14 days after treatment. One population (Group 3) of rats was sacrificed on the last day of BrdU injection, Another population (Group 4) was sacrificed at four weeks after the last BrdU injection. Animals which were not administered DETA-NONO were given BrdU with the identical protocol as that for the DETA-NONO treated rats (Group 5).

[3] = system: neuronal progenitor cells in the SVZ and in the dentate gyrus; test: Proliferation of neuronal progenitor cells (BrdU immunoreactive cells) in ischemic adult rats (embolic MCA occlusion)
Procedure: Two experiments were performed. In the first experiment, the effects of NO on the proliferation of neuronal progenitor cells in the SVZ and the dentate gyrus of non ischemic adult rats were examined. In the second experiment, the effects of NO on the proliferation of neuronal progenitor cells in the SVZ and in the dentate gyrus of ischemic adult rats were examined.
Based on above data, a second experiment was performed to explore NO effects on focal embolic cerebral ischemic brain. All procedures were the same as in the first experiment except for the following procedures.
(§1) Male Wistar rats (n=30) weighing 300-350 g were subjected to middle cerebral artery (MCA) occlusion. The MCA was occluded by placement of an embolus at the origin of the MCA. Briefly, a single intact fibrin rich 24 hour old homologous clot (about 1 μl) was placed at the origin of the MCA via a fifteen mm length of modified PE-50 catheter. The experimental protocol consisted of four groups. In Group I (control group), rats were subjected to MCA occlusion and received four consecutive intravenous bolus doses of saline (0.52 ml each, every fifteen minutes) at 24 hours after ischemia. Group II (DETNO/NO precondition) rats received four consecutive intravenous bolus doses of DETANONO (0.1 mg/kg each, every fifteen minutes, and total dose 0.4 mg/kg) at 24 hours before embolization. Group III (DETANONO two set group), animals received consecutive intravenous bolus doses of DETANONO (0.1 mg/kg each, every fifteen minutes and total dose 0.4 mg/kg) at 24 and 48 hours after occlusion. Group IV (DETANONO seven set group), animals received four consecutive intravenous bolus doses of DETANONO (0.1 mg/kg each, every fifteen minutes and total dose 0.4 mg/kg) at 24 hours after embolization. Subsequently, rats were intraperitoneally injected with DETA/NO at 0.4 mg/kg every day for six consecutive days.

[4] = system: focal embolic cerebral ischemic brain; test: Ischemic lesion volume after embolic MCA occlusion; conditions: ischemic rats
Procedure: as §1

NCCN(CCN)/[N+]([O-])=N/O [DETANONO, DETANONOate]
BrdU cells in the granule cell layer ([1]; Group 1: treated at 24 and 48 hours after stroke, non-treated 37.3±3.6): 89.5±12
numbers of BrdU positive cells, subventricular zone ([1]; Group 2: 24 h after stroke then daily ip, BrdU daily 14 days, untreated 1653±91.4): 2748±326
numbers of BrdU positive cells, dentate gyrus granule cell layer ([1]; Group 2: 24 h after stroke then daily ip, untreated 37.3±3.6): 135±18.9
numbers of BrdU positive cells, dentate gyrus hilus ([1]; Group 2, untreated 10.1±2.4): 43.8±10.2
numbers of BrdU positive cells, dentate gyrus (second pair of values, area not named) ([1]; Group 2, untreated 34.9±2.8): 53.7±6.3
newly formed cells within the dentate gyrus that were neurons ([1]; ischemic rats): > 90%
newly formed cells within the hippocampus of neuronal phenotype ([1]; rats treated with DETANONO and subjected to strokes, estimated): more than 90%
BrdU cells, subventricular zones (two values, sides not given) ([2]; Group 3: single dose iv 0.12 mg, sacrificed on last day of BrdU injection, Group 5 controls 1432.6±104.6, 1655.2±102.9, in cells/mm2): 2952±102.6 and 2725.3±115.5
BrdU cells, dentate gyrus (granule cell layer) ([2]; Group 3, Group 5 control 39.9±7.26): 73.7±8.11
BrdU cells, subventricular zone (two values, sides not given) ([2]; Group 4: single dose iv 0.12 mg, sacrificed four weeks after last BrdU injection, controls 214.6±67.9, 233.1±49.2, in cells/mm2): 456.5±42.3 and 518.4±67.2
BrdU immunoreactive cells in the OB ([3]; ischemic rats, 14 days and 42 days after MCA occlusion): Significant increases
BrdU immunoreactive cells in dentate gyrus ([3]; ischemic rats, 14 days and 42 days, vs MCA occlusion group): significant increases
numbers of BrdU immunoreactive cells in the SVZ ([3]; preconditioned group (24 hours before embolization), contralateral SVZ at 14 days, both SVZs at 42 days, vs non-treated MCA occlusion): Significant (p<0.05) increases
BrdU immunoreactive cells in the SVZ ([3]; seven sets, contralateral and ipsilateral SVZ at 14 days and 42 days after MCA occlusion): significant increases
numbers of BrdU immunoreactive cells in the SVZ ([3]; two dosage group (24 and 48 hours after occlusion), ipsilateral SVZ at 14 days, both SVZ at 42 days): significant increase
ischemic lesion volume [4]: did not exhibit a significant reduction
